According to patent US6630491B1, “Use of nicotinic analogs for treatment of degenerative diseases of the nervous system” (priority 1991, dated 2003):
Structures can show the parent of a compound that is named as a salt.

Tests used:
[1] = system: Male Sprague Dawley albino rats; assay: Passive avoidance behavior in nucleus basalis lesioned and unlesioned rats; format: in vivo, rat; settings: for shift (increase) in potency by lesioning: lesioned vs unlesioned animals; for shift (increase) in potency by lesioning / potency in lesioned vs unlesioned animals: passive avoidance; for potency in lesioned vs unlesioned animals: FIGS. 1 and 2; for dose that interfered with training or behavior: after lesioning; for effective dose in passive avoidance behavior: i.p. 5 min before trial and testing
Protocol: Male Sprague Dawley albino rats were used for all studies and were maintained in departmental animal facilities, using NIH guidelines for care of animals. Where lesioned animals were tested, lesions were induced in anesthetized animals by bilateral infusion of ibotenic acid (5 μg in 1 μl) or phosphate buffered saline (PBS) into the nucleus basalis region.
For passive avoidance behavior, animals received a moderately strong shock (0.8 m Amp) for 1 second after entering a dark room. After 24 hours, the animals were again tested to determine if they could remember to stay out of the dark room. Animals were only allowed 5 minutes to make their choice, when they were removed from the lighted chamber. For testing the effects of drugs in animals that were not lesioned, shocks were only 0.5m Amp in intensity, and the animals were allowed 72 hours until they were tested after training. In all drug-treatment studies, the drugs were injected intraperitoneally in saline diluent 5 minutes before the trial and 5 minutes before the testing period.
The effect of (−)anabaseine on passive avoidance was also determined using unlesioned animals (FIG. 3). In these experiments (−)anabaseine was injected intraperitoneally 5 min. before training and testing in the passive avoidance apparatus. Only animals that trained within 300 sec the first time were used (i.e., those animals that entered the dark compartment and received a mild foot shock).

aged rats [2] = assay: 17-arm radial maze testing of aged rats; format: in vivo, rat; settings: 2 mg/kg 15 minutes prior to each daily trial, FIG. 4
Text: The 17 arm radial maze requires animals to remember a baited set of 8 arms out of the 17 total arms. At the start of each daily trial, rats are placed in the center of the maze and permitted to choose among the 17 arms until all 8 food rewards are taken or until fifteen minutes elapse. Those animals that reach a performance criteria of 17 arm choices on two consecutive days of testing during the first 14 days of testing are continued in testing for an additional 30 days. For such animals, only data collected after day 14 are used in the statistical analyses. Statistical analyses are done on 3 sets of data. The first is a measure of general learning: the percent correct choices (entries into baited arms) over the first 8 arm choices. The second is a measure of short term memory (working memory) calculated from the first 12 arm choices: the percent of choices into baited arms (containing food) over the total number of choices within the baited set. Working memory, an interatrial measure of short term memory, measured the rat's ability to remember which of the arms in the baited set were previously entered and the food reward taken. The third set of data measured long-term or reference memory and also was calculated from the first 12 arm choices. Reference memory, defined as an inter-trial measure, is the percent correct choices in the baited set over the total number of arm choices. […]

aged rats [3] = assay: Lashley III maze testing of aged rats; format: in vivo, rat; settings: aged animals, 2 mg/kg before training, first two blocks of tests, FIG. 5
Text: The Lashley III maze tests an animal's ability to learn a series of left-right alternation turns. Six alternation errors are possible for any given daily trial; chance performance level is 3 errors per trial. Previous studies have shown that young adult sham operated animals quickly learn to reduce their number of alternation errors to near zero by the end of the test period. By contrast, 23 months old (Aged) sham operated animals made substantially more errors over the 25 days of testing. […] Therefore, both age- and lesion-induced learning deficits were observed. Nonetheless, all groups did improve their performance over time.
Aged animals injected with saline or DMAB-anabaseine were evaluated in the Lashley III maze (FIG. 5). […] This reflected an improvement in another memory-related behavior with this nicotine agonist.

[4] = system: cerebral cortical synaptosomes; assay: Release of newly synthesized [3H]ACh from synaptosomes
Text: (§1) Neurotransmitter release from synaptosomes provides a potential marker for receptor-activity at different types of nerve terminals. Neurotransmitter release from intact slices or minces provides a marker for receptor activity at many sites on the neuron. A comparison of the effects of nicotine and other drugs on synaptosomes versus slices provides some idea as to the location of nicotinic receptors on different types of cerebral cortical neurons, as well as their cellular location.
(§2) These different types of cerebral cortical transmitter systems have been tested. The first is the cholinergic; the procedures used to load cholinergic neurons or slices with newly synthesized [3H]ACh were described previously (Meyer, et al., 1987). The second is aspartate, an excitatory amino acid which, like glutamate, is associated with memory (long term potentiation) and neuropathology (e.g., stroke). The third type of neurotransmitter is GABA, which is the predominant transmitter in the cerebral cortex and is therefore very likely to receive cholinergic innervation.
(§3) In order to measure aspartate or GABA release, tissues were incubated with 100 nM [3H] aspartate or 250 nM [3h] GABA in Krebs Ringer buffer at 37° C. for 30 minutes, then washed them in ice cold buffer. All release-incubations were at 37° C. for 15 minutes in the presence or absence of 50 mM KCl (depolarization). Radiation accumulation was also measured in slices in order to express the released levels of transmitter as % of total transmitter, since slices were somewhat variable with respect to accumulation of label. K+ induced release of transmitter was determined by subtracting the basal release from that in the presence of the elevated K+, such that only the incremental release was determined.
(§4) Neurotransmitter levels (aspartate, glutamate) and enzyme levels were assayed as described by Arendash, et al., Science, 238:952, 1987. […] ACh from synaptosomes. Also, no effect was seen on the release of [3H] aspartate from isolated terminals.

[5] = system: isolated terminals (synaptosomes) of cerebral cortex; assay: Release of [3H]aspartate from isolated terminals
Text: as §1, §2, §3, §4

brain tissue slices = assay: Aspartate release from brain tissue slices; settings: for aspartate release, dose relation: except at one low concentration, FIGS. 6 and 7
Text: as §2, §3
The fact that nicotine […] without increasing basal release as well as K+ induced release is surprising. One hypothesis is that nicotine stimulates another type of neuron (presumably excitatory) to dis-inhibit the release of aspartate; this dis-inhibition would not be seen except when the aspartate neuron itself was activated by depolarization.

[6] = Water solubility (observation during synthesis); format: physicochemical
Protocol: The lithium enolate of 3nicotinoyl2-piperidone (4.94w) of step 1 was added slowly to a round bottom flask containing 30 mL of concentrated HCl which was chilled in an ice bath and stirred. The enolate was not readily soluble. The reaction mixture was heated at reflux under nitrogen overnight to effect the hydrolysis and decarboxylation. […] The reaction should not be diluted with too much aqueous acid or the product will not crystallize during the work up.

cortical slices [7] = assay: [3H]ACh release from cortical slices
Text: as §2, §3
This pattern was also observed with [3H]ACh release and [3H]GABA release from cortical slices. Nicotine (100 nM) increased the K+ induced release of ACh but reduced the K+induced GABA release from slices, while anabaseine (1 μM) had no effect on either process. […] Thus, it appears that the ability of nicotinic types of compounds to modulate neurotransmitter release is not mediated through one of the receptors with high affinity for anabaseine, or DMAB-anabaseine.

cortical slices [8] = assay: [3H]GABA release from cortical slices
Text: as §2, §3
This pattern was also observed with [3H]ACh release and [3H]GABA release from cortical slices. […]

[9] = system: vertebrate neuromuscular nicotinic acetylcholine receptors; settings: Kem, Amer.Zoologist, 25:99, 1985; cited from earlier work
[10] = even in animals with reduced neocortical cholinergic activity

vertebrate neuromuscular nicotinic acetylcholine receptors, sequence (P02708 21-457): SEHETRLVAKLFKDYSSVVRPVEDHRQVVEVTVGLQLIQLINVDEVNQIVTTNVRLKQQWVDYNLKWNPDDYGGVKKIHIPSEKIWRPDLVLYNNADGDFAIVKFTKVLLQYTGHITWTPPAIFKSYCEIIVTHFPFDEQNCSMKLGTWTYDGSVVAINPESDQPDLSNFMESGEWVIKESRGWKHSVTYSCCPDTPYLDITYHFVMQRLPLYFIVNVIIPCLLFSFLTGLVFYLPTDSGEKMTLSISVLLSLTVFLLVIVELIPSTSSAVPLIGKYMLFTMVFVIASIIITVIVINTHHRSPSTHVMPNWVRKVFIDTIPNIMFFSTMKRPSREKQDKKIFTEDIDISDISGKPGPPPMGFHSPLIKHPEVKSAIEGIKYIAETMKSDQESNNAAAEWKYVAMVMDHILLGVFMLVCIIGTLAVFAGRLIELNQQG
vertebrate neuromuscular nicotinic acetylcholine receptors, sequence (P11230 24-501 partner): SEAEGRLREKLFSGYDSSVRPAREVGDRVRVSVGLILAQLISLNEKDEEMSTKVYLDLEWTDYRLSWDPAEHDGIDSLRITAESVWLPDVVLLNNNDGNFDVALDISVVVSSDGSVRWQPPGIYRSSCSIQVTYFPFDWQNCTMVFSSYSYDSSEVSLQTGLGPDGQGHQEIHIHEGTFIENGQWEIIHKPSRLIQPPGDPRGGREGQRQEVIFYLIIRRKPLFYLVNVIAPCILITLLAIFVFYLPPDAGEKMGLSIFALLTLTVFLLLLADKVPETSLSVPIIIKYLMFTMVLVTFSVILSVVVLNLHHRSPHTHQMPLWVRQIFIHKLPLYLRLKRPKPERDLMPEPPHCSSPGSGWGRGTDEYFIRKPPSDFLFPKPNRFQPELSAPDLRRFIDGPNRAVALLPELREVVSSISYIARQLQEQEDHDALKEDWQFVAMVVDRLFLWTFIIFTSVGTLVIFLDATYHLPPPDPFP
vertebrate neuromuscular nicotinic acetylcholine receptors, sequence (Q07001 22-517 partner): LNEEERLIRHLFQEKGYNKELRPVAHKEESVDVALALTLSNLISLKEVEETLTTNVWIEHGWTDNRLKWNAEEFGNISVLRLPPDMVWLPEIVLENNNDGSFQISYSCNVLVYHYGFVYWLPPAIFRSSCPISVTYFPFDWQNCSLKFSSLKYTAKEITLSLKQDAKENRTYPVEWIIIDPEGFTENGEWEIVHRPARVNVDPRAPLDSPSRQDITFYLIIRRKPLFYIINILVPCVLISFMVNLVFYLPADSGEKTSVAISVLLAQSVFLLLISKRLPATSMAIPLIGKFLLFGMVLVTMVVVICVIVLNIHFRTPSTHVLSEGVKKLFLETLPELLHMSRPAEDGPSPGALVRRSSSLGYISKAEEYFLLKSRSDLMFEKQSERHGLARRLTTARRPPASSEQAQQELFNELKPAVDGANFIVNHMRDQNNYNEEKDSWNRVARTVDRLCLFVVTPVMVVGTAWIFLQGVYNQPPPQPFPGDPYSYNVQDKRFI

| Compound | effect on passive avoidance (memory-related) behavior [1, 10] | shift (increase) in potency by lesioning [1] | potency in lesioned vs unlesioned animals [1] | 50 mM KCl induced release of newly synthesized [3H]ACh [4] | basal release of newly synthesized [3H]ACh [4] | release of [3H]aspartate [5] | aspartate release, dose relation (brain tissue slices) | dose that interfered with training or behavior [1] | also measured |
| --- | --- | --- | --- | --- | --- | --- | --- | --- | --- |
| CN(C)c1ccc(C=C2CCCN=C2c2cccnc2)cc1 [DMAB-anabaseine, 3-[p-(dimethylamino)benzylidene]-3,4,5,6-tetrahydro-2,3′-bipyridine] | can improve this type of memory-related behavior | 2-2.5 fold | more potent in lesioned then in unlesioned animals | no effect | no effect | no effect | did not increase aspartate release in a dose-related manner |  | measure of long term memory (aged rats [2]): improved; short term memory (aged rats [2]): without affecting; number of errors in the maze (aged rats [3]): reduced the number of errors |
| c1cncc(C2=NCCCC2)c1 [anabaseine dihydrochloride] |  |  |  |  |  |  |  |  | water solubility [6]: very water soluble |
| c1cncc(C2=NCCCC2)c1 [anabaseine, 2-(3-pyridyl)-3,4,5,6-tetrahydropyridine] | can improve this type of memory-related behavior | ~2.5 fold | more potent in lesioned then in unlesioned animals | no effect | no effect | no effect | did not increase aspartate release in a dose-related manner | 0.2 mg/kg | effect on passive avoidance (memory-related) behavior ([1]; unlesioned animals, i.p. 5 min before training and testing (FIG. 3)): can improve this type of memory-related behavior; K+ induced release of ACh (cortical slices [7]; 1 μM): no effect; K+ induced GABA release (cortical slices [8]; 1 μM): no effect; activation of vertebrate neuromuscular nicotinic acetylcholine receptors [9]: potent activator |
| CN1CCCC1c1cccnc1 (stereo not shown) [nicotine, reference compound] |  |  |  | no effect | no effect | no effect |  | 0.2 mg/kg | effective dose in passive avoidance behavior ([1]; nucleus basalis lesioned animals): 0.02 mg/kg; effective dose in passive avoidance behavior ([1]; unlesioned animals): 0.05 mg/kg; K+ induced release of aspartate (brain tissue slices; 100 nM, FIG. 6): increased; spontaneous release of transmitter (aspartate) (brain tissue slices; 100 nM, FIG. 6): without affecting; basal ACh release (cortical slices [7]): increased; K+ induced release of ACh (cortical slices [7]; 100 nM): increased; K+ induced GABA release (cortical slices [8]; 100 nM): reduced |
